Measured values from US20250268980A1, “AN ANTICANCER THERAPY TARGETING RAS AND OTHER ONCOGENIC SIGNALS BY INHIBITION OF DYNAMIC BLEBBING AND/OR SEPTINS” (THE BOARD OF REGENTS OF THE UNIVERSITY OF TEXAS SYSTEM, priority 2022, published 2025).

Tests used:
MEF cells = assay: Caspase activity assay (CellEvent Caspase-3/7) in MEF cells expressing DYN2 (K44A); format: cell-based, mouse; settings: 10 μg/mL WGA or 50 μM FCF; for anoikis resistance acquired by DYN2 (K44A) expression: MEF DYN2 (K44A); for caspase activation: detached MEF DYN2 (K44A), 4 hours
Description: Inhibitors. Wheat Germ Agglutinin (WGA) was purchased from Sigma (product #L9640). Forchlorfenuron (FCF) was purchased from Sigma (product #C2791). VitroGel and VitroGel-RGD were purchased from TheWell Bioscience (sku #s TWG001 and TWG002). H1152 was purchased from Tocris (catalogue #2414). NSC6683394 was purchased from Sigma (product #341216). Dabrafenib (GSK2118436), and Trametinib (GSK1120212) were purchased from Selleckchem. Transient expression of dominant negative Dyn2 (K44A) 66,67 was achieved through adenovirus transduction68 as previously described69 with cells analyzed 16-18 hours after transduction.
Detached/Adhered Cell Culture. […] Drug treatments, solvent-only controls, or CellEvent caspase activity sensor were added to suspensions if appropriate to the experiment, and then immediately transferred to both an uncoated (for detached cells) and ibiTreated (for adhered cells) 8-well ibidi u-slide (ibidi cat #80821 and 80826) at 200 μl/well. Both slides were stored at 37° C. and 5% CO2 for either 24 hours (hrs) for viability assays, 3 hrs for ERK activity assays or 4 hours for caspase activation assays. Uncoated slides (detached) were nutated at 20 rpm during this time. […] For experiments using MAPKi A375 cells, Dabrafenib and Trametinib treatment was continued over the course of the experiment.
Viability, ERK Activity, and Caspase ActivityCell Counting Assays. Viability, ERK activity, and caspase activity assays were analyzed using live-cell fluorescent and phase-contrast microscopy, performed on a Nikon Ti microscope equipped with an environmental chamber held at 37° C. and 5% CO2 at 20× magnification. For viability assays, cells were stained with ethidium homodimer-1 (Invitrogen cat #E1169) at 4 µM and Hoechst (ThermoFisher cat #H3570) at 10 μg/ml for 15 minutes before imaging. Live and dead cells (as identified by significant cellular ethidium signal) were counted using the Cell Counter ImageJ plugin. For ERK activity assays, live cells carrying ERK-nKTR-GFP and H2B-mCherry were imaged after 3 hours of experimental conditions and high/low ERK activity cells were counted with Cell Counter ImageJ plugin. Cells in which nuclear GFP signals were by eye higher than cytoplasmic signal (“brighter” nucleus visible within “darker” cytoplasm) were labelled ERK low, while cytoplasmic signals equal to or higher than nuclear signal (nucleus indistinguishable from cytoplasm or “darker” nucleus within “brighter” cytoplasm) were labelled ERK high. To control for unconscious bias in making this determination, the identity of all ERK experimental groups were blinded from the analyst. […] Caspase positive and negative cells (as identified by significant cellular CellEvent signal) were counted using the Cell Counter ImageJ plugin.

[1] = system: cortical septin structures in MV3 cells; assay: Cortical septin localization (SEPT6-GFP) in MV3 cells; format: cell-based, human
Protocol: Cells Embedded in 3D Collagen.
Cells Grown in VitroGel Coffins. VitroGel coffins were prepared by embedding MV3 or A375 cells in VitroGel 3D or RGD at 1:1 dilution according to manufacturer's instructions (TheWell Biosciences, sku #TWG001). […] A 1:1 solution of VitroGel and VitroGel Dilution Solution was made and added to cell suspension at a ratio of 4:1 (VitroGel: cells) using gentle pipetting until well-mixed (with care taken not to form bubbles). Cell/VitroGel solution was transferred to an 8-well uncoated ibidi μ-slide (ibidi cat #80821) at 100 μl/well, spread over the bottom of wells with a pipette tip, and allowed to polymerize at room temperature for 15 minutes. The remainder of the well was then filled with 10% FBS DMEM and slide was stored at 37° C. and 5% CO2 for either 24 hrs for viability assays, 3 hrs for ERK activity assays, or 1 hour for visualization of septins/PI3K activity.
3D Light-Sheet Imaging. […] All images were saved in the OME-TIFF format.
3D Cell Image Analysis. Cell morphology and septin localization were analyzed principally via u-shape3D similar to the protocol described in Driscoll et al. Nature Methods. 16, 1037-1044 (2019), the disclosure of which is incorporated herein in its entirety. Briefly, 3D images were first deconvolved using either a Richardson-Lucy or Wiener algorithm with an experimentally measured point spread function. […] Cell surfaces were then represented as triangle meshes, and the mean surface curvature at every triangle was calculated according to methods described in Driscoll et al. Nature Methods. […] Septin and NRAS localization was measured from fluorescence images by extending a sphere of either 1 μm (for septins) or 2 μm (for NRAS) about each mesh triangle and mapping to the triangle the average intensity both within that sphere and the cell. Image intensity was not depth normalized prior to analysis, but was instead measured from the raw, undeconvolved image. […]
Cortical septin levels were quantified by measuring the mean cytoplasmic intensity of each cell using hand-drawn ROIs that excluded nuclei (performed with the FIJI ImageJ package), and then calculating for each cell its fraction of cortical voxels (intracellular voxels within 0.96 μm of the u-Shape3D-derived surface) that were higher than that cell's mean cytoplasmic intensity (performed using a MATLAB script). NRAS enrichment at the surface was quantified by first calculating the total amount of intracellular signal expected to be within 0.96 μm of the surface if the cell's signal was homogenously distributed between all voxels, and then calculating the percent change between this value and the observed value for each cell. […]

Compound | anoikis resistance acquired by DYN2 (K44A) expression (MEF cells) | caspase activation (MEF cells) | cortical septin structures ([1]; MV3 SEPT6-GFP, FCF treatment) | cortical septin levels (fraction of cortical voxels above mean cytoplasmic SEPT6-GFP intensity) ([1]; MV3, relative to control conditions) | septin localization (cortical levels) ([1]; MV3 SEPT6-GFP, WGA (50 ug/ml), VitroGel, H1152 (1 μM), NSC668394 (10 μM))
O=C(Nc1ccccc1)Nc1ccnc(Cl)c1 [FCF, forchlorfenuron] | reversed | returned to levels seen in matched non-blebbing control cells | near-complete ablation of cortical septin structures | – | –
wheat germ agglutinin [WGA] | reversed | returned to levels seen in matched non-blebbing control cells | – | significantly reduced cortical septin levels | pronounced effects on septin localization, reducing cortical levels
